Measured values: PMC8400120, “Synthesis of Novel Methyl 7-[(Hetero)arylamino]thieno[2,3-b]pyrazine-6-carboxylates and Antitumor Activity Evaluation: Effects in Human Tumor Cells Growth, Cell Cycle Analysis, Apoptosis and Toxicity in Non-Tumor Cells” (Molecules, 2021)
Entries after “also recorded” stand apart in the source; their conditions may differ.

Experiments:
[1] = SRB cell growth inhibition assay, non-tumor Vero cells (toxicity); type: cell-based; conditions: African green monkey, Vero cells (non-tumor kidney cell line), 48 h incubation, mean ± SD
Description: (§1) The antitumor potential of the di(hetero)arylamines 2a–2o was evaluated using the sulforhodamine B (SRB) assay to establish some structure–activity relationships. Four human tumor cell lines (acquired from Leibniz-Institut DSMZ) were used: gastric adenocarcinoma (AGS), colorectal adenocarcinoma (CaCo-2), breast adenocarcinoma (MCF7), and non-small-cell lung cancer (NCI-H460), as well as a non-tumor cell line from African green monkey kidney (Vero) to evaluate the toxicity of the compounds. Ellipticine was used as a positive control, and the results are presented in GI50 values (µM) (Table 2).
(§2) Each cell line was prepared in 96-well plates, at the required density (1.0 × 10^4 cells/well) and incubated for 24 h to achieve cell attachment. The solutions of the compounds were applied and incubated for another 48 h. GI50 values (µM) corresponding to the compound concentration that inhibited 50% of cell growth were determined using the sulforhodamine B assay. Two separate tests were carried out for each compound, in duplicate, with the effects expressed as mean values and standard deviation (SD). Ellipticine was used as a positive control.

[2] = system: gastric adenocarcinoma (AGS); assay: SRB cell growth inhibition assay, AGS; type: cell-based, human; conditions: for GI50: AGS, SRB assay, 48 h incubation, mean ± SD; for Selectivity for AGS among the cell lines used: comparison of GI50 values
Description: as §1, §2

breast carcinoma (MCF7) = assay: SRB cell growth inhibition assay, MCF7; type: cell-based, human; conditions: MCF-7, SRB assay, 48 h incubation, mean ± SD
Description: as §1, §2

[3] = system: non-small-cell lung carcinoma (NCI-H460); assay: SRB cell growth inhibition assay, NCI-H460; type: cell-based, human; conditions: 48 h incubation, mean ± SD
Description: as §1, §2

[4] = system: colorectal adenocarcinoma (CaCo-2); assay: SRB cell growth inhibition assay, CaCo-2; type: cell-based, human; conditions: for GI50: CaCo-2, SRB assay, 48 h incubation, mean ± SD
Description: as §1, §2

AGS cells [5] = assay: Flow cytometric cell cycle analysis (PI staining); type: cell-based, human; conditions: at GI50 concentration, 72 h, vs blank
Description: This assay is based on the measurement of the DNA content in the PI-labeled nuclei. […] Cell cycle analysis was performed using propidium iodide (PI) staining and flow cytometry. This assay is established on the measurement of the DNA content of nuclei labeled with PI. Following this, the cells were staining according to the protocol PI/RNASE Solution (Immunostep, Spain, Salamanca). The harvested cells corresponding to 2 × 10^5 to 1 × 10^6 cells, were centrifuged for 5 min at 300g, and the supernatant was removed. The cells were fixed and added to 200 µL of 70% ethanol and left in the ethanol at 4 °C for 30 min. Following this, the cells were washed once in 2 mL phosphate-buffered saline (PBS) and centrifuged for 5 min at 300g and resuspended in 500 μL of PI solution (PI/RNASE) and incubated in the dark, at room temperature, for 15 min. Cell cycle phase distribution was evaluated using an Accuri C6 flow cytometer (BD Biosciences, San Jose, CA, USA). The DNA content of at least 20,000 cells was counted per sample, and the percentage of cells in different phases (G0/G1, S, and G2/M phases) of the cell cycle was evaluated using BD Accuri C6 software (BD Biosciences, San Jose, CA, USA). Ellipticine was used as a positive control at its GI50 concentration for AGS cell line.

AGS cells [6] = assay: Flow cytometric apoptosis detection (FITC Annexin V/PI); type: cell-based, human; conditions: at GI50 concentration, 72 h; for Cell death in apoptosis assay: vs blank
Description: Apoptosis induction was performed using the Fluorescein Isothiocyanate (FITC) Annexin V Apoptosis Kit (BD Biosciences, San Jose, CA, USA), and measured by flow cytometry for compounds 2b, 2f, and 2g (Figure 3). FITC Annexin V staining was used to determine the percentage of cells within a population that are actively undergoing apoptosis. […] Apoptosis detection was performed using the Fluorescein Isothiocyanate (FITC) Annexin V Apoptosis Kit (BD Biosciences, San Jose, CA, USA) and flow cytometry. FITC Annexin V staining is used to determine the percentage of cells within a population that are actively undergoing apoptosis. The cells were washed twice with PBS and resuspended cells in 1× Binding Buffer (10 mM HEPES/NaOH, pH 7.4, 140 mM NaCl, 2.5 mM CaCl2) at a concentration of 1 × 10^6 cells/mL. Following this, 100 μL of the solution (1 × 10^5 cells) was transferred to a 5 mL culture tube and 5 μL of FITC Annexin V (BD Biosciences, San Jose, CA, USA) and 5 μL of PI (BD Biosciences, San Jose, CA, USA) were added to each tube, and they were incubated in the dark, at room temperature, for 15 min. Finally, 400 μL of 1× Binding Buffer was added to each tube. Next, 30,000 cells were acquired using an Accuri C6 flow cytometer (BD Biosciences, San Jose, CA, USA), and the percentage of cell distribution was evaluated with Accuri C6 software (BD Biosciences, San Jose, CA, USA). Ellipticine was used as a positive control at its GI50 concentration for AGS cell line.

| SMILES | GI50 at 48 h [1] | GI50 ([2]; Homo sapiens, 48 h) | GI50 (breast carcinoma (MCF7); Homo sapiens, MCF7, 48 h) | GI50 ([3]; Homo sapiens, NCI-H460, 48 h) | GI50 ([4]; Homo sapiens, Caco-2, 48 h) | melting point | further results |
| --- | --- | --- | --- | --- | --- | --- | --- |
| COC(=O)c1sc2nccnc2c1Nc1cc(OC)c(OC)c(OC)c1 [2h, Methyl 7-[(3,4,5-Trimethoxyphenyl)amino]thieno[2,3-b]pyrazine-6-carboxylate] | 53 ± 5 µM | 33 ± 3 µM | 105.7 ± 0.5 µM | 77 ± 6 µM | 9.2 ± 0.3 µM | – | – |
| COC(=O)c1sc2nccnc2c1Nc1ccc(F)cc1 [2k, Methyl 7-[(4-Fluorophenyl)amino]thieno[2,3-b]pyrazine-6-carboxylate] | 149 ± 7 µM | 118 ± 2 µM | 160 ± 7 µM | 84 ± 2 µM | 62 ± 4 µM | 171 to 173 °C | – |
| COC(=O)c1sc2nccnc2c1Nc1ccccc1[N+](=O)[O-] [2o, Methyl 7-[(2-Nitrophenyl)amino]thieno[2,3-b]pyrazine-6-carboxylate] | 92 ± 8 µM | 55 ± 0.3 µM | 103 ± 3 µM | 43 ± 2 µM | 31.2 ± 0.2 µM | 225 to 227 °C | – |
| COC(=O)c1sc2nccnc2c1Nc1ccc(OC)cc1 [2d, Methyl 7-[(4-Methoxyphenyl)amino]thieno[2,3-b]pyrazine-6-carboxylate] | 127 ± 3 µM | 59 ± 3 µM | 136 ± 3 µM | 52.8 ± 0.3 µM | 60 ± 2 µM | – | – |
| COC(=O)c1sc2nccnc2c1Nc1ccc(OC)cc1OC [2e, Methyl 7-[(2,4-Dimethoxyphenyl)amino]thieno[2,3-b]pyrazine-6-carboxylate] | 138 ± 8 µM | 34 ± 2 µM | 140 ± 7 µM | 200 ± 3 µM | 56 ± 2 µM | 159 to 161 °C | – |
| COC(=O)c1sc2nccnc2c1Nc1cccc(F)c1 [2j, Methyl 7-[(3-Fluorophenyl)amino]thieno[2,3-b]pyrazine-6-carboxylate] | 149 ± 4 µM | 86 ± 6 µM | 96 ± 6 µM | 69 ± 7 µM | 142 ± 11 µM | – | – |
| Cc1c2ccncc2c(C)c2c1[nH]c1ccccc12 [Ellipticine, reference compound] | 0.6 ± 0.1 µM | ≤ 1 µM | ≤ 1 µM | ≤ 1 µM | ≤ 1 µM | – | GI50 [2]: 0.9 ± 0.1 µM; GI50 (breast carcinoma (MCF7)): 1.02 ± 0.004 µM; GI50 [3]: 1.01 ± 0.01 µM; GI50 [4]: 0.8 ± 0.1 µM |
| COC(=O)c1sc2nccnc2c1Nc1ccccc1F [2i, Methyl 7-[(2-Fluorophenyl)amino]thieno[2,3-b]pyrazine-6-carboxylate] | 117 ± 10 µM | 48 ± 4 µM | 128 ± 5 µM | 76 ± 1 µM | 88.4 ± 0.2 µM | – | – |
| COC(=O)c1sc2nccnc2c1Nc1cccnc1 [2l, Methyl 7-[(Pyridin-3-yl)amino]thieno[2,3-b]pyrazine-6-carboxylate] | 110 ± 5 µM | 63.3 ± 0.1 µM | 116 ± 5 µM | 122 ± 11 µM | 45 ± 3 µM | 150 to 152 °C | – |
| COC(=O)c1sc2nccnc2c1Nc1ccc(OC)c(OC)c1 [2f, Methyl 7-[(3,4-Dimethoxyphenyl)amino]thieno[2,3-b]pyrazine-6-carboxylate] | 53 ± 3 µM | < 10 µM | 87 ± 1 µM | 41 ± 3 µM | < 10 µM | – | GI50 [2]: 9.2 ± 0.2 µM; Effect on G0/G1 phases of AGS cell cycle (AGS cells [5]): cell cycle arrest in G0/G1 phases, although this result was not statistically significant; Effect on G2/M phase of AGS cell cycle (AGS cells [5]): did not present any difference in the percentage of cells compared to the blank; High number of cells in apoptosis (expected from GI50 values) (AGS cells [6]): not verified; Cell death in apoptosis assay (AGS cells [6]): moderated cell death compared to the blank; GI50 [4]: 8 ± 1 µM |
| COC(=O)c1sc2nccnc2c1Nc1cccc(OC)c1 [2c, Methyl 7-[(3-Methoxyphenyl)amino]thieno[2,3-b]pyrazine-6-carboxylate] | 94 ± 3 µM | 98 ± 3 µM | 160 ± 6 µM | 96 ± 1 µM | 56 ± 1 µM | 171 to 173 °C | – |
| COC(=O)c1sc2nccnc2c1-n1cccc1 [2m, Methyl 7-(1H-pyrrol-1-yl)thieno[2,3-b]pyrazine-6-carboxylate] | 140 ± 12 µM | 88.6 ± 0.1 µM | 128 ± 2 µM | 49 ± 2 µM | 43.3 ± 0.3 µM | 166 to 168 °C | – |
| COC(=O)c1sc2nccnc2c1Nc1cc(OC)cc(OC)c1 [2g, Methyl 7-[(3,5-Dimethoxyphenyl)amino]thieno[2,3-b]pyrazine-6-carboxylate] | 144 ± 10 µM | 7.8 ± 0.2 µM | 182 ± 5 µM | 120 ± 10 µM | 38 ± 4 µM | – | Selectivity for AGS among the cell lines used [2]: selective for this cell line; AGS cell cycle profile histogram (AGS cells [5]): high percentage of cell death and an atypical distribution on cell cycle profile; High number of cells in apoptosis (expected from GI50 values) (AGS cells [6]): not verified; Apoptotic cells (AGS cells [6]; Figure 4): 19,6%; Dead cells (AGS cells [6]; Figure 4): 60,4%; Live Cells (AGS cells [6]; Figure 4): 19,0%; Cell death in apoptosis assay (AGS cells [6]): large amount of cell death |
| COC(=O)c1sc2nccnc2c1Nc1ccccc1OC [2b, Methyl 7-[(2-Methoxyphenyl)amino]thieno[2,3-b]pyrazine-6-carboxylate] | 21.29 ± 0.03 µM | 9.8 ± 0.2 µM | 127 ± 9 µM | 45 ± 1 µM | 36 ± 2 µM | – | Selectivity for AGS among the cell lines used [2]: selective for this cell line; Effect on G0/G1 phases of AGS cell cycle (AGS cells [5]): cell cycle arrest in G0/G1 phases, although this result was not statistically significant; Effect on G2/M phase of AGS cell cycle (AGS cells [5]): did not present any difference in the percentage of cells compared to the blank; High number of cells in apoptosis (expected from GI50 values) (AGS cells [6]): not verified; Cell death in apoptosis assay (AGS cells [6]): moderated cell death compared to the blank |
| COC(=O)c1sc2nccnc2c1Nc1ccccc1 [2a, Methyl 7-(Phenylamino)thieno[2,3-b]pyrazine-6-carboxylate] | 120 ± 6 µM | 95 ± 9 µM | 97 ± 2 µM | 122 ± 9 µM | 38 ± 2 µM | 154 to 156 °C | – |
| COC(=O)c1sc2nccnc2c1Nc1ccc(C#N)cc1 [2n, Methyl 7-[(4-Cyanophenyl)amino]thieno[2,3-b]pyrazine-6-carboxylate] | 48 ± 4 µM | 39 ± 3 µM | 103 ± 2 µM | 105 ± 8 µM | 10.9 ± 0.4 µM | 214 to 216 °C | Selectivity for CaCo-2 among the cell lines used ([4]; comparison of GI50 values): selective for this cell line; also recorded: selective against CaCo-2 cell line |
